Some results are limits rather than exact numbers.

The subject of the experiment is TEAD responsive promoter element (8XGTIIC-Luciferase; YAP1-TEAD and TAZ-TEAD activity). Briefly: TEAD-Luciferase reporter assay. Type of experiment: cell-based. The conditions noted are these: Homo sapiens; luciferase activity in tumor cell lines with stable integration of the 8XGTIIC-Luciferase construct; 10 doses between 1 and 10000 nM, 48 hrs. The source says: TEAD-Luciferase Reporter Assay
Luciferase-based gene reporter assays were used, employing the TEAD responsive promoter element that are stably integrated to different human tumor cell lines in order to monitor YAP1-TEAD and TAZ-TEAD activity and to study YAP1/TAZ-TEAD activity modulation by small molecule compounds. Luciferase-based gene reporter assays employing the GAPDH promoter element and stably integrated to different human tumor cell lines are used as counter screen control cell lines.
Tumor cell lines with stable integration of the 8XGTIIC-Luciferase construct (Dupont et al., Nature 2011) or the GAPDH-Luciferase control plasmid, are seeded in culture medium in 96-well plates at a density of 8000 cells/well. Following an overnight incubation in a 37° C., 5% CO2 growth chamber, cells are treated with compounds described above at 10 doses ranging between 1 and 10000 nM for 48 hrs. After compound incubation, cells are lysed with Bright-Glo Luciferase Assay System (Promega E2620) and luciferase activity is measured using a luminescent plate reader.
The inhibitory activity of the compounds with respect to luciferase activity is given by the concentration which inhibits 50% of activity of non-treated cells. IC50s are determined with a nonlinear regression model on XLfit software analysis (IDBS, UK).
(In general: Reporter assays use an easily measured gene product as a stand-in for the process of interest.)
What is called IC50 is the concentration needed to halve the response being measured. Low values mean higher potency, high ones lower potency. As for `C=CC(=O)Nc1ccc2c(c1)c(COC)cn2-c1ccc(C(F)(F)F)cc1` [Example 72, N-(3-(methoxymethyl)-1-(4-(trifluoromethyl)phenyl)-1H-indol-5-yl)acrylamide], half-maximal inhibition (IC50) was put at 15 nM.

In turn, `C=CC(=O)Nc1ccc2c(ccn2Cc2cccc(C(F)(F)F)c2)c1` [Example 1, N-(1-(3-(trifluoromethyl)benzyl)-1H-indol-5-yl)acrylamide] displayed an IC50 of 24 nM.

Turning to `C=CC(=O)Nc1cc2ccn(Cc3cccc(C(F)(F)F)c3)c2cc1F` [Example 80, N-(6-fluoro-1-(3-(trifluoromethyl)benzyl)-1H-indol-5-yl)acrylamide], it took 18 nM to reach half-maximal inhibition (IC50).

`C=CC(=O)Nc1ccc2c(c1)cc(C)n2-c1ccc(C(F)(F)F)cc1` [Example 70, N-(2-methyl-1-(4-(trifluoromethyl)phenyl)-1H-indol-5-yl)acrylamide] registered an IC50 of 12 nM.

`C=CC(=O)Nc1ccc2c(ccn2-c2cccc(C(F)(F)F)c2)c1` [Example 43, N-(1-(3-(trifluoromethyl)phenyl)-1H-indol-5-yl)acrylamide]: the concentration for half-maximal inhibition (IC50) came out at 36 nM.

`C=CC(=O)Nc1ccc2c(c1)c(C)cn2Cc1cccc(C(F)(F)F)c1` [Example 11, N-(3-methyl-1-(3-(trifluoromethyl)benzyl)-1H-indol-5-yl)acrylamide] gave an IC50 of 30 nM.

Molecule `C=CC(=O)Nc1ccc2c(c1)c(C(=O)OC)cn2Cc1cccc(C(F)(F)F)c1` [Example 61, methyl 5-acrylamido-1-(3-(trifluoromethyl)benzyl)-1H-indole-3-carboxylate] came in with an IC50 of 41 nM.

`C=CC(=O)Nc1ccc2c(ccn2Cc2ccc(F)c(F)c2)c1` [Example 53, N-(1-(3,4-difluorobenzyl)-1H-indol-5-yl)acrylamide] yielded a 50% inhibitory concentration (IC50) of 33 nM.

The molecule `C=CC(=O)Nc1ccc2c(ccn2-c2ccc(S(F)(F)(F)(F)F)cc2)c1` [Example 63, N-(1-(4-(pentafluoro-λ6-sulfanyl)phenyl)-1H-indol-5-yl)acrylamide] had an IC50 of 29 nM.

As for `C=CC(=O)Nc1ccc2c(ccn2Cc2cc(C(F)(F)F)ccc2F)c1` [Example 10, N-(1-(2-fluoro-5-(trifluoromethyl)benzyl)-1H-indol-5-yl)acrylamide], inhibition was half-maximal at 7220 nM (IC50).

With `C=CC(=O)Nc1ccc2c(ccn2-c2ccc(F)c(F)c2)c1` [Example 49, N-(1-(3,4-difluorophenyl)-1H-indol-5-yl)acrylamide], the concentration for half-maximal inhibition (IC50) was more than 10000 nM.

`C=CC(=O)Nc1ccc2ccn(-c3cccc(C(F)(F)F)c3)c2c1` [Example 62, N-(1-(3-(trifluoromethyl)phenyl)-1H-indol-6-yl)acrylamide] returned a half-inhibitory concentration (IC50) of 64 nM.

Turning to `C=CC(=O)Nc1ccc2c(ccn2Cc2cccc(S(C)(=O)=O)c2)c1` [Example 59, N-(1-(3-(methylsulfonyl)benzyl)-1H-indol-5-yl)acrylamide], the IC50 was found to be 2870 nM.

Regarding `C=CC(=O)Nc1ccc2c(c1)c(C#N)cn2Cc1cccc(C(F)(F)F)c1` [Example 14, N-(3-cyano-1-(3-(trifluoromethyl)benzyl)-1H-indol-5-yl)acrylamide], the IC50 came out at 236 nM.

Molecule `C=CC(=O)Nc1ccc2c(ccn2Cc2ccc(-c3cccc(C(F)(F)F)c3)cc2)c1` [Example 31, N-(1-((3′-(trifluoromethyl)-[1,1′-biphenyl]-4-yl)methyl)-1H-indol-5-yl)acrylamide] registered a 50% inhibitory concentration (IC50) of 20 nM.

`C=CC(=O)Nc1ccc2c(ccn2-c2ccc(C#N)cc2)c1` [Example 51, N-(1-(4-cyanophenyl)-1H-indol-5-yl)acrylamide] returned an IC50 of 313 nM.

Turning to `C/C=C/C(=O)Nc1ccc2c(ccn2-c2ccc(C(F)(F)F)cc2)c1` [Example 75, (E)-N-(1-(4-(trifluoromethyl)phenyl)-1H-indol-5-yl)but-2-enamide], the IC50 was 458 nM.

`C=CC(=O)Nc1ccc2c(c1)cc(C)n2Cc1cccc(C(F)(F)F)c1` [Example 13, N-(2-methyl-1-(3-(trifluoromethyl)benzyl)-1H-indol-5-yl)acrylamide] had an IC50 of 63 nM.

Regarding `C=CC(=O)Nc1ccc2c(ccn2Cc2cccc(C#N)c2)c1` [Example 54, N-(1-(3-cyanobenzyl)-1H-indol-5-yl)acrylamide], the IC50 was determined as 388 nM.

For the molecule `C=CC(=O)Nc1ccc2c(ccn2C2CCN(CC(F)(F)F)CC2)c1` [Example 38, N-(1-(1-(2,2,2-trifluoroethyl)piperidin-4-yl)-1H-indol-5-yl)acrylamide], half-maximal inhibition (IC50) required 1500 nM.

`C=CC(=O)Nc1ccc2c(ccn2CCCCC(F)(F)F)c1` [Example 3, N-(1-(5,5,5-trifluoropentyl)-1H-indol-5-yl)acrylamide] displayed an IC50 of 25 nM.

Turning to `C=CC(=O)Nc1ccc2c(ccn2Cc2cccc(S(F)(F)(F)(F)F)c2)c1` [Example 5, N-(1-(3-(pentafluoro-λ6-sulfanyl)benzyl)-1H-indol-5-yl)acrylamide], the midpoint of inhibition, the IC50, lay at 61 nM.

`C=CC(=O)Nc1ccc2ccn(-c3ccc(C(F)(F)F)cc3)c2c1` [Example 64, N-(1-(4-(trifluoromethyl)phenyl)-1H-indol-6-yl)acrylamide] returned a concentration for half-maximal inhibition (IC50) of 108 nM.

The molecule `C=CC(=O)Nc1ccc2c(ccn2CC2CCC(F)C2)c1` (stereo not drawn) [Example 26, N-(1-((3-fluorocyclopentyl)methyl)-1H-indol-5-yl)acrylamide] showed an IC50 of 357 nM.

On to `C=CC(=O)Nc1ccc2c(ccn2Cc2cccc(C)c2)c1` [Example 17, N-(1-(3-methylbenzyl)-1H-indol-5-yl)acrylamide], for which 54 nM corresponded to half-maximal inhibition (IC50).

In turn, `C=CC(=O)Nc1ccc2c(ccn2CCOCC(F)(F)F)c1` [Example 37, N-(1-(2-(2,2,2-trifluoroethoxy)ethyl)-1H-indol-5-yl)acrylamide] came in with an IC50 of more than 10000 nM.

The molecule `C=CC(=O)Nc1ccc2c(ccn2[C@H]2CC[C@H](C(F)(F)F)CC2)c1` [Example 33, Trans-N-[1-[4-(trifluoromethyl)cyclohexyl]indol-5-yl]acrylamide] registered a half-maximal inhibitory concentration (IC50) of 41 nM.

The molecule `C=CC(=O)Nc1ccc2ccn(Cc3cccc(C(F)(F)F)c3)c2c1` [Example 21, N-(1-(3-(trifluoromethyl)benzyl)-1H-indol-6-yl)acrylamide] came in with an IC50 of 35 nM.

`C=CC(=O)Nc1ccc2c(ccn2Cc2cccc(OC(F)(F)F)c2)c1` [Example 8, N-(1-(3-(trifluoromethoxy)benzyl)-1H-indol-5-yl)acrylamide] returned a half-maximal inhibitory concentration (IC50) of 296 nM.

`C=CC(=O)Nc1ccc2c(ccn2Cc2csc(C(F)(F)F)n2)c1` [Example 57, N-(1-((2-(trifluoromethyl)thiazol-4-yl)methyl)-1H-indol-5-yl)acrylamide] came in with a half-maximal inhibitory concentration (IC50) of 191 nM.

For the molecule `C=CC(=O)Nc1ccc2c(c1)c(C(N)=O)cn2-c1ccc(C(F)(F)F)cc1` [Example 84, 5-Acrylamido-1-(4-(trifluoromethyl)phenyl)-1H-indole-3-carboxamide], the IC50 was 620 nM.

`C=CC(=O)Nc1ccc2c(ccn2-c2ccc(C(F)(F)F)cc2)c1` [Example 44, N-(1-(4-(trifluoromethyl)phenyl)-1H-indol-5-yl)acrylamide]: the half-inhibitory concentration (IC50) amounted to 8 nM.

As to `C=CC(=O)Nc1ccc2c(ccn2CC2CCC(C(F)(F)F)CC2)c1` (stereo not drawn) [Example 24, N-(1-((4-(trifluoromethyl)cyclohexyl)methyl)-1H-indol-5-yl)acrylamide], the 50% inhibitory concentration (IC50) stood at 1000 nM.

For the molecule `C=CC(=O)Nc1ccc2c(ccn2CCCN2CCC(F)(F)C2)c1` [Example 41, N-(1-(3-(3,3-difluoropyrrolidin-1-yl)propyl)-1H-indol-5-yl)acrylamide], the 50% inhibitory concentration (IC50) is not below 10000 nM.

In turn, `C=CC(=O)Nc1ccc2c(ccn2CC2CCC(F)(F)CC2)c1` [Example 22, N-(1-((4,4-difluorocyclohexyl)methyl)-1H-indol-5-yl)acrylamide] gave an IC50 of 1400 nM.

`C=CC(=O)Nc1ccc2c(ccn2C2CCN(c3ccc(C(F)(F)F)cc3)CC2)c1` [Example 40, N-(1-(1-(4-(trifluoromethyl)phenyl)piperidin-4-yl)-1H-indol-5-yl)acrylamide] showed a 50% inhibitory concentration (IC50) not below 10000 nM.

Molecule `CN(C)C/C=C/C(=O)Nc1ccc2c(ccn2-c2ccc(C(F)(F)F)cc2)c1` [Example 76, (E)-4-(dimethylamino)-N-(1-(4-(trifluoromethyl)phenyl)-1H-indol-5-yl)but-2-enamide] gave a half-maximal inhibitory concentration (IC50) of 3830 nM.

The molecule `C=CC(=O)Nc1cc2ccn(Cc3cccc(C(F)(F)F)c3)c2cc1Cl` [Example 78, N-(6-chloro-1-(3-(trifluoromethyl)benzyl)-1H-indol-5-yl)acrylamide] came in with a 50% inhibitory concentration (IC50) of 141 nM.

`C=CC(=O)Nc1cc(Cl)c2c(ccn2-c2ccc(C(F)(F)F)cc2)c1` [Example 81, N-(7-chloro-1-(4-(trifluoromethyl)phenyl)-1H-indol-5-yl)acrylamide]: the half-maximal inhibitory concentration (IC50) was 68 nM.

`C=CC(=O)Nc1ccc2c(ccn2Cc2ccc(-c3ccc(C(F)(F)F)cc3)cc2)c1` [Example 32, N-(1-((4′-(trifluoromethyl)-[1,1′-biphenyl]-4-yl)methyl)-1H-indol-5-yl)acrylamide] came in with a half-inhibitory concentration (IC50) of 7840 nM.

On to `C=CC(=O)Nc1ccc2c(ccn2C(C)c2cccc(C(F)(F)F)c2)c1` (stereo not drawn) [Example 4, N-(1-(1-(3-(trifluoromethyl)phenyl)ethyl)-1H-indol-5-yl)acrylamide], for which the midpoint of inhibition, the IC50, lay at 558 nM.

With `C=CC(=O)N(C)c1ccc2c(ccn2-c2ccc(C(F)(F)F)cc2)c1` [Example 74, N-methyl-N-(1-(4-(trifluoromethyl)phenyl)-1H-indol-5-yl)acrylamide], half-maximal inhibition (IC50) was put at 106 nM.

The values above are taken from US12692230B2, “(1 h-indol-5-yl)acrylamide derivatives as inhibitors of TEAD proteins and the hippo-YAP1/TAZ signaling cascade for the treatment of cancer” (Sanofi, priority 2020, dated 2026).
